Laboratory results published in patent US6538035B2, “Use of tolterodine to treat asthma” (Pharmacia & Upjohn Company, priority 2000, dated 2003).

What was measured:
chronic COPD = assay: treatment of a patient with chronic COPD by inhalation; format: in vivo, human; details: person
Procedure: A person with a history of chronic COPD with FEV1 of 1.5 liters is treated with tolterodine aerosol 1 mg every 12 hr continuously for dyspnea. After two weeks of therapy dyspnea tolerance is improved.
A person with a history of chronic COPD with FEV1/FVC of 60% liters is treated with hydroxytolterodine aerosol 2 mg every 8 hr continuously for dyspnea. After a week of treatment the FEV1/FVC ratio improves to about 65%.

asthma = assay: treatment of a patient with asthma by inhalation, morning peak flow; format: in vivo, human; details: person
Procedure: A person with a history of asthma with a morning peak flow of less than 2 l/sec is treated with 2-(diisopropylamino)ethyl-1-phenylcyclopentanecarboxylate powder 0.1 mg every 8 hr continuously. Treatment improves the peak flow to 4-5 l/sec.
A person with a history of severe asthma with a morning peak flow of 5 l/sec is treated with tolterodine powder 6 mg once a day continuously. After a week of treatment the peak flow improves to 9 l/sec.
A person with a history of severe asthma with a morning peak flow of less than 3 l/sec is treated with tolterodine aerosol 2 mg three times daily continuously. After a week of treatment the peak flow improves to 6 l/sec.

Cc1ccc(O)c([C@H](CCN(C(C)C)C(C)C)c2ccccc2)c1 [tolterodine, 2-[(1R)-3-(diisopropylamino)-1-phenylpropyl]-4-methylphenol]
dyspnea tolerance (chronic COPD; FEV1 of 1.5 liters, aerosol 1 mg every 12 hr continuously, after two weeks of therapy): improved | peak flow (asthma; severe asthma, baseline morning peak flow 5 l/sec, powder 6 mg once a day continuously, after a week): 9 L/s | peak flow (asthma; severe asthma, baseline morning peak flow less than 3 l/sec, aerosol 2 mg three times daily continuously, after a week): 6 L/s

CC(C)N(CC[C@H](c1ccccc1)c1cc(CO)ccc1O)C(C)C [hydroxytolterodine, 2-[(1R)-3-(diisopropylamino)-1-phenylpropyl]-4-(hydroxymethyl)phenol]
FEV1/FVC ratio (chronic COPD; baseline FEV1/FVC of 60%, aerosol 2 mg every 8 hr continuously, after a week of treatment): about 65%

CC(C)N(CCOC(=O)C1(c2ccccc2)CCCC1)C(C)C [2-(diisopropylamino)ethyl-1-phenylcyclopentanecarboxylate]
peak flow (asthma; asthma, baseline morning peak flow less than 2 l/sec, powder 0.1 mg every 8 hr continuously): 4 to 5 L/s
